Experimental data reported in patent US9365539B2, “Prolylcarboxypeptidase inhibitors” (Merck Sharp & Dohme Corp., priority 2010, dated 2016).

Target: human PrCP (Homo sapiens (Human), UniProt P42785)
Test: Prolylcarboxypeptidase (PRCP) enzyme activity assay, fluorescence intensity kinetic assay
Format: biochemical
Settings: recombinant human PrCP (CHO), 15 uM substrate, pH 5.5, 37° C.
Protocol: The potency of compounds of formula I against PrCP was determined by a fluorescence intensity kinetic assay measuring the IC50 values of PrCP inhibitor test compounds. […] The assay was run on a Perkin Elmer Envision 2103 plate reader using a 320 nm excitation filter and a 405 emission filter. The assay was performed using a Hamilton Star liquid handling workstation. The assay employed the internally quenched fluorescent substrate (1S)-1-carboxy-5-[(2,4-dinitrophenyl)amino]pentyl N-[(7-methoxy-2-oxo-2H-chromen-4-yl)acetyl]-L-alanyl-L-prolinate prepared in house.
The assay was run in a 384-well microliter plate at 37° C. with a total volume of 50 uL. Final assay concentrations were 0.13 nM human PrCP (CHO) or 0.09 nM mouse PrCP (CHO) enzyme, 15 uM substrate and varying concentrations of inhibitor in buffer containing 10 mM NaOAc, 100 mM NaCl and 19.5 ug/mL BSA at pH 5.5. The assay also contained 2% DMSO used to solubilize the substrate and inhibitor. Inhibitors were prepared in 100% DMSO and serial diluted (in 100% DMSO) to generate 11 point titration curves. Either 39 uL of human or mouse PrCP enzyme was added to the wells of the assay plate, followed by a 1 uL addition of the serially diluted inhibitor and mixed three times using a 30 uL mix volume. The reaction was initiated by the addition of 10 uL substrate and mixed three times using a 30 μL mix volume. The reactions were monitored continuously over 25 min at 37° C. to obtain initial velocities. IC50 values were calculated by comparing the resulting rates of reaction of the inhibited and control initial velocities.
The enzymes were diluted in a mixture of 10 mM NaOAc (pH 5.5)/100 mM NaCl buffer containing 25 ug/mL bovine serum albumin that had been warmed to 37° C. in a water bath. The PrCP inhibitor test compounds were plated in 100% DMSO with a highest concentration of 500 uM. There were 12 dilution points for each compound tested including a blank with DMSO only. The test compounds from the source titration plate were transferred into the assay reaction plate at a 1:50 dilution using the Hamilton Star workstation and mixed, resulting in a final concentration for the test compounds in the range of 10,000 to 0.066 nM. Likewise, two control compounds were similarly titrated and included in each assay, with final starting concentrations starting at 10,000 nM and 200 nM, respectively. The reaction was initiated by the addition of 75 uM of the (1S)-1-carboxy-5-[(2,4-dinitrophenyl)amino]pentyl N-[(7-methoxy-2-oxo-2H-chromen-4-yl)acetyl]-L-alanyl-L-prolinate substrate, which was diluted in a mixture of 10 mM NaOAc (pH 5.5)/100 mM NaCl that had been warmed to 37° C. in a water bath, dispensed using the Hamilton Star workstation and mixed. The substrate was solubilized in 100% DMSO prior to dilution into the assay. The final assay concentrations in the 50 uL reactions were 15 uM of (1S)-1-carboxy-5-[(2,4-dinitrophenyl)amino]pentyl N-[(7-methoxy-2-oxo-2H-chromen-4-yl)acetyl]-L-alanyl-L-prolinate substrate, 0.13 nM Human PrCP (CHO) or 0.09 nM Mouse PrCP (CHO), and 2% DMSO.
The resulting rates of reaction were used to determine the IC50 value for each PrCP inhibitor compound tested.

Chain of human PrCP (P42785 46-496): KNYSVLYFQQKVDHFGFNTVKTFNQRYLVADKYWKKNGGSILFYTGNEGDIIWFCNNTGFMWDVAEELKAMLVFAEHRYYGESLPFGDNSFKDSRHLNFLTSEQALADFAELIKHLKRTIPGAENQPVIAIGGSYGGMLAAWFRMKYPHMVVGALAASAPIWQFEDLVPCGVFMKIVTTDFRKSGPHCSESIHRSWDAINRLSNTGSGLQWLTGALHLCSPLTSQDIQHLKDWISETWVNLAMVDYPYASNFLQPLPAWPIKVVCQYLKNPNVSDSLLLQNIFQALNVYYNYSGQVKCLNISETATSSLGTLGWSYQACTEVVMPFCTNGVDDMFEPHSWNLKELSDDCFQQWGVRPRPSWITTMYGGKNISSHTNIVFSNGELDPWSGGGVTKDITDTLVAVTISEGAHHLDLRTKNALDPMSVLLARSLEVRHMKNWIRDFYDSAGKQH

| Molecule | IC50 |
| --- | --- |
| Clc1ccc(-c2cc(C3CCN(CCc4ccccc4)CC3)n(-c3ncccn3)n2)cc1 [Example 1, 2-{3-(4-Chlorophenyl)-5-[1-(2-phenylethyl)piperidin-4-yl]-1H-pyrazol-1-yl}pyrimidine] | 0.051 nM |
| Clc1ccc(-c2cc(C3CCN(CCc4ccccc4)CC3)nn2-c2ccncn2)cc1 [Example 13, 4-{5-(4-chlorophenyl)-3-[1-(2-phenylethyl)piperidin-4-yl]-1 Hyl}pyrimidine] | 38.4 nM |
| CCn1nc(-c2ccc(Cl)cc2)cc1C1CCN(CCc2ccccc2)CC1 [Example 26, 4-[3-(4-chlorophenyl)-1-ethyl-1 H-pyrazol-5-yl]-1-(2-phenylethyl)piperidine] | 31.8 nM |
| COC(=O)C(CN1CCC(c2cc(-c3ccc(F)cc3)nn2-c2ncccn2)CC1)c1ccccc1 (centres unmarked) [Example 33, Methyl 3-{4-[3-(4-fluorophenyl)-1-(pyrimidin-2-yl)-1 H-pyrazol-5-yl]piperidin-1-pyrazol-5-yl]piperidin-1] | 0.035 nM |
| O=C(O)C(CN1CCC(c2cc(-c3ccc(F)cc3)nn2-c2ncccn2)CC1)c1ccccc1 (centres unmarked) [Example 34, 3-{4-[3-(4-fluorophenyl)-1-(pyrimidin-2-yl)-1 H-pyrazol-5-yl]piperidin-1-yl}-2-phenylpropanoic acid] | 0.51 nM |
| OC(CN1CCC(c2cc(-c3ccc(Cl)cc3)nn2-c2ncccn2)CC1)c1ccccc1 (centres unmarked) [Example 36, 2-{4-[3-(4-Chlorophenyl)-1-(pyrimidin-2-yl)-1H-pyrazol-5-yl]piperidin-1-yl}-1-phenylethanol] | 0.31 nM |
| O=S(=O)(c1ccc(N2CCC(c3cc(-c4ccc(Cl)cc4)nn3-c3ncccn3)CC2)nc1)N1CCOCC1 [Example 48, 4-[(6-{4-[3-(4-chlorophenyl)-1-(pyrimidin-2-yl)-1 H-pyrazol-5-yl]piperidin-1-yl}pyridin-3-yl)sulfonyl]morpholine] | 80.2 nM |
| CS(=O)(=O)N1CCC(N2CCC(c3cc(-c4ccc(Cl)cc4)nn3-c3ccccc3)CC2)C1 (centres unmarked) [Example 60, 4-[3-(4-chlorophenyl)-1-phenyl-1 H-pyrazol-5-yl]-1-[1-(methylsulfonyl)pyrrolidin-3-yl]piperidine] | 21.1 nM |
| O=C(Cc1ccccc1C(F)(F)F)N1CCC(c2cc(-c3ccc(F)cc3)nn2-c2ncccn2)CC1 [Example 68, 1-{4-[3-(4-fluorophenyl)-1-(pyrimidin-2-yl)-1 H-pyrazol-5-yl]piperidin-1-yl}-2-[2-(trifluoromethyl)phenyl]ethanone] | 1.28 nM |
| CO[C@@H](CN1CCC(c2nc(-c3ccc(F)cc3)nn2-c2ncccn2)CC1)c1ccccc1 [Example 81, 2-[3-(4-fluorophenyl)-5-{1-[(2 R)-2-methoxy-2-phenylethyl]piperidin-4-yl}-1 H-1,2,4-triazol-1-yl]pyrimidine] | 2.58 nM |
| Fc1ccc(-c2nc(C3C4CN(CCc5ccccc5)CC43)n(-c3ncccn3)n2)cc1 (centres unmarked) [Example 82, 6-[3-(4-Fluorophenyl)-1-(pyrimidin-2-yl)-1H-1,2,4-triazol-5-yl]-3-(2-phenylethyl)-3-azabicyclo[3.1.0]hexane] | 28.6 nM |

System: not given
Test: not given
Settings: intracerebroventricular to rats; cited from earlier work

| Molecule | overnight food intake |
| --- | --- |
| t-butyl carbamate-prolyl prolinal [BPP] | suppression of overnight food intake |

System: not given
Test: not given
Settings: systemic administration to obese, leptin deficient mice; cited from earlier work

| Molecule | overnight food intake |
| --- | --- |
| t-butyl carbamate-prolyl prolinal [BPP] | suppression of overnight food intake |

System: not given
Test: not given
Settings: limited weight loss of about; cited from earlier work

| Molecule | weight loss, of body weight, drug compared to placebo |
| --- | --- |
| CCN[C@@H](C)Cc1cccc(C(F)(F)F)c1 [dexfenfluramine] | 5%-10% |
| CCCCCCCCCCC[C@@H](C[C@@H]1OC(=O)[C@H]1CCCCCC)OC(=O)[C@H](CC(C)C)NC=O [orlistat] | 5%-10% |
| CC(C)(N)Cc1ccccc1 [phentermine] | 5%-10% |
| CC(C)CC(N(C)C)C1(c2ccc(Cl)cc2)CCC1 (centres unmarked) [sibutramine] | 5%-10% |
